Source: patent publication US20250249056A1, “CANCER THERAPIES COMPRISING A NUCLEAR EXPORT INHIBITOR AND AN ONCOLYTIC VIRUS” (priority 2022, published 2025)

Assays:
DHX9 = test: Immunofluorescence staining of DHX9 localization / antiviral granules in MYXV-infected A549 cells; format: cell-based, human
Description: Immunofluorescence: Cells (5×10^5-1×10^6/dish) were seeded onto glass bottom 35 mm petri dishes overnight. Depending on the experiment, the next day, cells were transfected with siRNA for 48 hours or treated with a nuclear export inhibitor, MYXV, or a combination of both. At different time points after treatment, the cells were washed with PBS three times, fixed with 2% paraformaldehyde in PBS for 12 minutes at room temperature, washed with PBS three times, and permeabilized in 0.1% Triton™ X-100 in PBS for 90 seconds at room temperature. Fixed cells were washed with PBS three times and then blocked with 3% BSA in PBS for 30 minutes at 37° C., incubated with primary antibody (1:300 dilution) for 30 minutes at 37° C., washed with PBS six times, and incubated with secondary antibodies conjugated to different Alexa Fluor. After washing again with PBS six times, samples were mounted on glass slides with Vecta Shield (Vectorlabs) containing DAPI (4′,6′-diamidino-2-phenylindole) to stain DNA in the nuclei […]. Images were captured using a fluorescence microscope (Leica).

MYXV [1] = test: Viral replication assay: progeny virus titration on permissive rabbit RK13 cells; format: cell-based, myxoma virus; details: PANC-1 and HT29 cells; LMB 0.001-0.1 μM
Description: Viral titers in different human cancer cell lines were determined using a viral replication assay. Cells were seeded in 24-well plates (2×10^5 cells/well). The next day, the cells were treated with different concentrations of leptomycin B (LMB) or selinexor diluted in DMEM for 1 hour. MYXV was added to the cells and incubated for one hour at 37° C. After 1 hour, the unbound viruses were washed away using DMEM, and DMEM with LMB or selinexor was added to the cells. Cells were harvested in DMEM without LMB or selinexor at the indicated time points. After harvesting the cells, they were stored at −80° C. until processing. Samples were subjected to three freeze/thaw cycles and one-minute sonification to lyse cells and release the viral particles. Afterwards, different dilutions were prepared in DMEM and plated on rabbit RK13 and foci were counted after 48 hours using a fluorescent microscope. All assays and dilutions were performed in triplicate.

MYXV [2] = test: MYXV reporter gene expression (GFP/TdTomato) and foci by fluorescence microscopy in human cancer cell lines; details: PANC-1 and HT29 cells; pretreatment with LMB 0.001-0.1 μM; vMyx-GFP-TdTomato

## CCC(=C/[C@H](C)C/C=C/C(C)=C/[C@@H](C)C(=O)[C@@H](C)[C@H](O)[C@@H](C)C/C(C)=C/C(=O)O)/C=C/[C@@H]1OC(=O)C=C[C@@H]1C [LMB, leptomycin B]
DHX9; A549 cells infected with vMyx-GFP, 24 h
  formation of DHX9 antiviral granules in the cytoplasm: blocked the formation of antiviral granules
DHX9; A549 cells, LMB 1 h then vMyx-GFP MOI=1, 24 h
  cells in which DHX9 remained in the nucleus: > 80%
MYXV [1]
  viral production measured by titration assay: significantly enhanced viral production
MYXV [2]
  viral gene expression (early/late GFP and late TdTomato reporter protein expression): enhanced viral gene expression
